Experimental data as given in patent US20020016468A1 (published 2002).

In order of rising melting point:
1. CC[S+]([O-])c1c(C(N)=S)nn(-c2c(Cl)cc(OC(F)(F)F)cc2Cl)c1N (stereo not shown)  102 °C
2. CC[S+]([O-])c1c(C(N)=S)nn(-c2c(Cl)cc(C(F)(F)F)cc2Br)c1N (stereo not shown)  113.5 °C
3. C[S+]([O-])c1c(C(N)=S)nn(-c2c(Cl)cc(OC(F)(F)F)cc2Cl)c1N (stereo not shown)  137 °C
4. C[S+]([O-])c1c(C(N)=S)nn(-c2ccc(C(F)(F)F)cc2Cl)c1N (stereo not shown)  153.5 °C
5. CSc1c(C(N)=S)nn(-c2c(Cl)cc(C(F)(F)F)cc2Cl)c1N  161 °C
6. CC[S+]([O-])c1c(C(N)=S)nn(-c2c(Cl)cc(C(F)(F)F)cc2Cl)c1N (stereo not shown)  167 °C
7. NC(=S)c1nn(-c2c(Cl)cc(C(F)(F)F)cc2Cl)c(N)c1SC(F)(F)F  182 °C
8. C[S+]([O-])c1c(C(N)=S)nn(-c2c(Cl)cc(C(F)(F)F)cc2Br)c1N (stereo not shown)  188.5 °C
9. C[S+]([O-])c1c(C(N)=S)nn(-c2c(Cl)cc(C(F)(F)F)cc2Cl)c1N (stereo not shown)  192 °C
10. CS(=O)(=O)c1c(C(N)=S)nn(-c2c(Cl)cc(C(F)(F)F)cc2Cl)c1N  231 °C
